According to ChEMBL document CHEMBL3875175, “Multi-targeting exploration of new 2-aminothiazolyl quinolones: Synthesis, antimicrobial evaluation, interaction with DNA, combination with topoisomerase IV and penetrability into cells” (Eur J Med Chem, 2016):
Converted amounts (≈) assume the structure as drawn.

Tests used:
[1] = system: Pseudomonas aeruginosa; test: Antibacterial activity against Pseudomonas aeruginosa ATCC 27853 after 24 hrs by two fold serial dilution method; assay type: functional; conditions: ATCC 27853, 24 h
[2] = system: Escherichia coli; test: Antibacterial activity against Escherichia coli DH52 after 24 hrs by two fold serial dilution method; assay type: functional; conditions: DH52, 24 h
[3] = system: Staphylococcus aureus; test: Antibacterial activity against methicillin-resistant Staphylococcus aureus N315 after 24 hrs by two fold serial dilution method; assay type: functional; conditions: N315, 24 h
[4] = system: Candida albicans; test: Antifungal activity against Candida albicans ATCC 76615 after 24 hrs by two fold serial dilution method; assay type: functional; conditions: ATCC 76615, 24 h
[5] = system: Bacillus spizizenii; test: Antibacterial activity against Bacillus subtilis ATCC 6633 after 24 hrs by two fold serial dilution method; assay type: functional; conditions: ATCC 6633, 24 h
[6] = system: Saccharomyces cerevisiae; test: Antifungal activity against Beer yeast after 24 hrs by two fold serial dilution method; assay type: functional
[7] = system: Shigella dysenteriae; test: Antibacterial activity against Shigella dysenteriae after 24 hrs by two fold serial dilution method; assay type: functional
[8] = system: Aspergillus flavus; test: Antifungal activity against Aspergillus flavus after 24 hrs by two fold serial dilution method; assay type: functional
[9] = Antifungal activity against Candida utilis after 24 hrs by two fold serial dilution method; assay type: functional; conditions: Cyberlindnera jadinii
[10] = system: Proteus vulgaris; test: Antibacterial activity against Bacillus proteus ATCC 13315 after 24 hrs by two fold serial dilution method; assay type: functional; conditions: ATCC 13315, 24 h
[11] = system: Salmonella typhi; test: Antibacterial activity against Bacillus typhi after 24 hrs by two fold serial dilution method; assay type: functional, Salmonella enterica subsp. enterica serovar Typhi; conditions: Salmonella enterica
[12] = system: Staphylococcus aureus; test: Antibacterial activity against Staphylococcus aureus ATCC 25923 after 24 hrs by two fold serial dilution method; assay type: functional; conditions: ATCC 25923, 24 h
[13] = Antifungal activity against Candida mycoderma after 24 hrs by two fold serial dilution method; assay type: functional; conditions: Pichia norvegensis
[14] = system: Micrococcus luteus; test: Antibacterial activity against Micrococcus luteus ATCC 4698 after 24 hrs by two fold serial dilution method; assay type: functional; conditions: NCTC 2665, 24 h
[15] = system: Escherichia coli; test: Antibacterial activity against Escherichia coli JM109 after 24 hrs by two fold serial dilution method; assay type: functional; conditions: JM109, 24 h
[16] = system: Shigella dysenteriae; test: Potency index, ratio of chloromycin MIC to compound MIC for Shigella dysenteriae; assay type: functional
[17] = system: Shigella dysenteriae; test: Potency index, ratio of norfloxacin MIC to compound MIC for Shigella dysenteriae; assay type: functional

Nc1ncc(-c2cn(Cc3cccc(F)c3)c3c(F)cc(F)cc3c2=O)s1
MIC [1]: 64 µg/mL (≈ 165 µM)
MIC [2]: 128 µg/mL (≈ 330 µM)
MIC [3]: 32 µg/mL (≈ 82.6 µM)
MIC80 [4]: 64 µg/mL (≈ 165 µM)
MIC [5]: 128 µg/mL (≈ 330 µM)
MIC80 [6]: 64 µg/mL (≈ 165 µM)
MIC [7]: 64 µg/mL (≈ 165 µM)
MIC80 [8]: 64 µg/mL (≈ 165 µM)
MIC80 [9]: 64 µg/mL (≈ 165 µM)
MIC [10]: 32 µg/mL (≈ 82.6 µM)
MIC [11]: 32 µg/mL (≈ 82.6 µM)
MIC [12]: 64 µg/mL (≈ 165 µM)
MIC80 [13]: 32 µg/mL (≈ 82.6 µM)
MIC [14]: 128 µg/mL (≈ 330 µM)
MIC [15]: 128 µg/mL (≈ 330 µM)

CCCCCn1cc(-c2cnc(N)s2)c(=O)c2cc(F)cc(F)c21
MIC [1]: 16 µg/mL (≈ 45.8 µM)
MIC [2]: 32 µg/mL (≈ 91.6 µM)
MIC [3]: 32 µg/mL (≈ 91.6 µM)
MIC80 [4]: 64 µg/mL (≈ 183 µM)
MIC [5]: 64 µg/mL (≈ 183 µM)
MIC80 [6]: 128 µg/mL (≈ 366 µM)
MIC [7]: 16 µg/mL (≈ 45.8 µM)
MIC80 [8]: 16 µg/mL (≈ 45.8 µM)
MIC80 [9]: 64 µg/mL (≈ 183 µM)
MIC [10]: 64 µg/mL (≈ 183 µM)
MIC [11]: 16 µg/mL (≈ 45.8 µM)
MIC [12]: 256 µg/mL (≈ 733 µM)
MIC80 [13]: 32 µg/mL (≈ 91.6 µM)
MIC [14]: 128 µg/mL (≈ 366 µM)
MIC [15]: 64 µg/mL (≈ 183 µM)

CCCn1cc(-c2cnc(N)s2)c(=O)c2cc(F)cc(F)c21
MIC [1]: 16 µg/mL (≈ 49.8 µM)
MIC [2]: 64 µg/mL (≈ 199 µM)
MIC [3]: 32 µg/mL (≈ 99.6 µM)
MIC80 [4]: 32 µg/mL (≈ 99.6 µM)
MIC [5]: 32 µg/mL (≈ 99.6 µM)
MIC80 [6]: 16 µg/mL (≈ 49.8 µM)
MIC [7]: 4 µg/mL (≈ 12.4 µM)
MIC80 [8]: 32 µg/mL (≈ 99.6 µM)
MIC80 [9]: 64 µg/mL (≈ 199 µM)
MIC [10]: 64 µg/mL (≈ 199 µM)
MIC [11]: 16 µg/mL (≈ 49.8 µM)
MIC [12]: 16 µg/mL (≈ 49.8 µM)
MIC80 [13]: 32 µg/mL (≈ 99.6 µM)
Ratio [16]: 4
MIC [14]: 16 µg/mL (≈ 49.8 µM)
Ratio [17]: 4
MIC [15]: 64 µg/mL (≈ 199 µM)

COc1ccc(Cn2cc(-c3cnc(N)s3)c(=O)c3cc(F)cc(F)c32)cc1
MIC [1]: 64 µg/mL (≈ 160 µM)
MIC [2]: 64 µg/mL (≈ 160 µM)
MIC [3]: 256 µg/mL (≈ 641 µM)
MIC80 [4]: 256 µg/mL (≈ 641 µM)
MIC [5]: 128 µg/mL (≈ 320 µM)
MIC80 [6]: 64 µg/mL (≈ 160 µM)
MIC [7]: 128 µg/mL (≈ 320 µM)
MIC80 [8]: 64 µg/mL (≈ 160 µM)
MIC80 [9]: 512 µg/mL (≈ 1280 µM)
MIC [10]: 256 µg/mL (≈ 641 µM)
MIC [11]: 64 µg/mL (≈ 160 µM)
MIC [12]: 256 µg/mL (≈ 641 µM)
MIC80 [13]: 256 µg/mL (≈ 641 µM)
MIC [14]: 64 µg/mL (≈ 160 µM)
MIC [15]: 128 µg/mL (≈ 320 µM)

OC(Cn1cncn1)(Cn1cncn1)c1ccc(F)cc1F [FLUCONAZOLE]
MIC80 [4]: 1 µg/mL (≈ 3.27 µM)
MIC80 [6]: 16 µg/mL (≈ 52.2 µM)
MIC80 [8]: 256 µg/mL (≈ 836 µM)
MIC80 [9]: 8 µg/mL (≈ 26.1 µM)
MIC80 [13]: 4 µg/mL (≈ 13.1 µM)

CCCCCCCCCCCCn1cc(-c2cnc(N)s2)c(=O)c2cc(F)cc(F)c21
MIC [1]: 32 µg/mL (≈ 71.5 µM)
MIC [2]: 256 µg/mL (≈ 572 µM)
MIC [3]: 128 µg/mL (≈ 286 µM)
MIC80 [4]: 128 µg/mL (≈ 286 µM)
MIC [5]: 64 µg/mL (≈ 143 µM)
MIC80 [6]: 128 µg/mL (≈ 286 µM)
MIC [7]: 128 µg/mL (≈ 286 µM)
MIC80 [8]: 256 µg/mL (≈ 572 µM)
MIC80 [9]: 64 µg/mL (≈ 143 µM)
MIC [10]: 256 µg/mL (≈ 572 µM)
MIC [11]: 64 µg/mL (≈ 143 µM)
MIC [12]: 512 µg/mL (≈ 1140 µM)
MIC80 [13]: 32 µg/mL (≈ 71.5 µM)
MIC [14]: 128 µg/mL (≈ 286 µM)
MIC [15]: 128 µg/mL (≈ 286 µM)

CCCCCCCn1cc(-c2cnc(N)s2)c(=O)c2cc(F)cc(F)c21
MIC [1]: 32 µg/mL (≈ 84.8 µM)
MIC [2]: 32 µg/mL (≈ 84.8 µM)
MIC [3]: 128 µg/mL (≈ 339 µM)
MIC80 [4]: 32 µg/mL (≈ 84.8 µM)
MIC [5]: 64 µg/mL (≈ 170 µM)
MIC80 [6]: 16 µg/mL (≈ 42.4 µM)
MIC [7]: 32 µg/mL (≈ 84.8 µM)
MIC80 [8]: 64 µg/mL (≈ 170 µM)
MIC80 [9]: 64 µg/mL (≈ 170 µM)
MIC [10]: 32 µg/mL (≈ 84.8 µM)
MIC [11]: 64 µg/mL (≈ 170 µM)
MIC [12]: 256 µg/mL (≈ 678 µM)
MIC80 [13]: 256 µg/mL (≈ 678 µM)
MIC [14]: 256 µg/mL (≈ 678 µM)
MIC [15]: 128 µg/mL (≈ 339 µM)

Nc1ncc(-c2cn(Cc3ccc([N+](=O)[O-])cc3)c3c(F)cc(F)cc3c2=O)s1
MIC [1]: 64 µg/mL (≈ 154 µM)
MIC [2]: 32 µg/mL (≈ 77.2 µM)
MIC [3]: 128 µg/mL (≈ 309 µM)
MIC80 [4]: 32 µg/mL (≈ 77.2 µM)
MIC [5]: 128 µg/mL (≈ 309 µM)
MIC80 [6]: 64 µg/mL (≈ 154 µM)
MIC [7]: 256 µg/mL (≈ 618 µM)
MIC80 [8]: 64 µg/mL (≈ 154 µM)
MIC80 [9]: 256 µg/mL (≈ 618 µM)
MIC [10]: 128 µg/mL (≈ 309 µM)
MIC [11]: 64 µg/mL (≈ 154 µM)
MIC [12]: 256 µg/mL (≈ 618 µM)
MIC80 [13]: 128 µg/mL (≈ 309 µM)
MIC [14]: 128 µg/mL (≈ 309 µM)
MIC [15]: 128 µg/mL (≈ 309 µM)

Nc1ncc(-c2cn(Cc3cccc(Cl)c3)c3c(F)cc(F)cc3c2=O)s1
MIC [1]: 64 µg/mL (≈ 158 µM)
MIC [2]: 32 µg/mL (≈ 79.2 µM)
MIC [3]: 128 µg/mL (≈ 317 µM)
MIC80 [4]: 128 µg/mL (≈ 317 µM)
MIC [5]: 256 µg/mL (≈ 634 µM)
MIC80 [6]: 64 µg/mL (≈ 158 µM)
MIC [7]: 128 µg/mL (≈ 317 µM)
MIC80 [8]: 64 µg/mL (≈ 158 µM)
MIC80 [9]: 256 µg/mL (≈ 634 µM)
MIC [10]: 256 µg/mL (≈ 634 µM)
MIC [11]: 32 µg/mL (≈ 79.2 µM)
MIC [12]: 64 µg/mL (≈ 158 µM)
MIC80 [13]: 64 µg/mL (≈ 158 µM)
MIC [14]: 128 µg/mL (≈ 317 µM)
MIC [15]: 256 µg/mL (≈ 634 µM)
